The results in this text go back to patent publication US11618738B2, “Compound and application thereof in treating inflammation or inflammation-related diseases” (SICHUAN CENTER FOR TRANSLATIONAL MEDICINE OF TRADITIONAL …, priority 2017, dated 2023).

What is called IC50 is the midpoint of a concentration-inhibition curve.

Like-named read-outs stand apart in the source and are kept apart here.

The test system of experiment [1] is acute gouty arthritis in rats induced by sodium urate crystals. Put plainly: Foot swelling in rats with acute gouty arthritis induced by sodium urate crystals. In kind it is in vivo. To be noted: for Foot swelling: 16.67 mg/kg once a day, mean ± SD. As to the method: Injecting sodium urate crystals into the joint cavity to establish an acute gouty arthritis model. Its pathological and clinical manifestations are very similar. It is a classic method commonly used in animal experiments to study gouty arthritis. This experiment will explore the effects of UTLOH series drugs on animals with acute gouty arthritis induced by sodium urate.
SPF grade SD rats, half female and half male (200-220 g/mouse), were randomly grouped by weight. The drug was administered once a day, for 3 consecutive days. […] Rats in the normal group were injected with an equal volume of sterile saline to the back of the right ankle joint. The administration was continued after modeling, once a day for 3 consecutive days. The ankle joint and foot volume of the rats in each group were measured respectively before modeling and 2 h, 4 h, 8 h, 24 h and 48 h after modeling.

The subject of the next experiment is PGE2 induced by LPS. Put plainly: Inhibition of LPS-induced PGE2 in RAW 264.7 cells (ELISA). To be noted: for PGE2 inhibition (%): RAW 264.7 cells, LPS 100 ng/mL, overnight, test concentration not given; for PGE2 inhibition rate (in words): same experimental method as Table 1. The format is cell-based, mice. As to the method: (§1) This example is taken from a previous publication by Song et al.^[1]. In brief, mice RAW 264.7 cells were treated with increasing doses of each test compound at 37° C. for 1 hour. Thereafter, the cells were attacked with 20 μL/well of LPS (equivalent to a final concentration of 100 ng/mL). The cells were further incubated overnight at 37° C. A commercial ELISA assay kit obtained from R&D Systems (Minneapolis, Minn.) was used to determine the level of PGE2 in the supernatant, and three parallel experiments were performed. The optical density of each well was measured using a BioTek Epoch microplate reader (Winooski, Vt.) set to 450 nm. The NO study was performed in a similar manner, but Greiss reagent was used to monitor the level of NO, and the results were read at 550 nm.
Background: In an ELISA, binding on a coated surface is turned into a signal by an enzyme label.

The subject of experiment [2] is 10% egg white-induced foot swelling in rats. Put plainly: 10% egg white-induced foot swelling in rats. The following applies: for Foot swelling: 6.67 mg/kg gavage once a day for 3 days, mean ± SD. In kind it is in vivo. The source says: Injecting 10% egg white into rat paws can cause early acute inflammation such as redness, heat, swelling, and pain in rat paws. In this experiment, the anti-inflammatory effects of UTLOH series compounds were observed by the degree of swelling of the paws of rats after inflammation.
SPF grade SD rats, half female and half male (100-120 g/mouse) were randomly grouped according to body weight. Each group was given the corresponding drugs by gavage, once a day, for 3 consecutive days, with a gavage volume of 1 ml/100 g. Before the experiment, the ankle joint of the right hind foot of each group of rats was marked, and the foot volume of each group of rats was measured twice with a rat foot volume meter, and the average of the two times was taken as the […]. 30 minutes after the last administration, the rats in each group were given a subcutaneous needle in the right hind paw, and injected with 10% fresh egg white solution 0.1 ml/mouse to cause inflammation, establishing a rat model of paw swelling. The post-inflamed foot volume in mice was measured twice at 1 h, 2 h, 3 h, and 4 h after inflammation, and the average of the two times was taken as the post-inflamed foot volume. The normal group was given 1 ml/100 g volume of 0.5% CMC-Na solution by gavage according to body weight.

The test system of another experiment is NO induced by LPS. Put plainly: Inhibition of LPS-induced NO in RAW 264.7 cells (Greiss reagent). In kind it is cell-based, mice. To be noted: for IC50: Mus musculus, RAW264.7.
From the text: Nitric oxide (NO) is a signaling molecule that plays a key role in the pathogenesis of inflammation. Under abnormal conditions, NO is a pro-inflammatory mediator that causes inflammation due to its overproduction. Therefore, the regulation of elevated NO levels by stimulants (such as LPS) has been widely used as a screening method to identify anti-inflammatory drugs. Since NO is oxidized into nitrite and nitrate, the determination of total NO2^−/NO3^− is a conventional method for determining NO levels, and Griess reagent is usually used in this type of experiment.
as §1

The mark [3] stands for this setting: RAW 264.7 cells, LPS 100 ng/mL, overnight, read-out: NO IC50 (μM), class.
Where [4] appears, read: RAW 264.7 cells, LPS 100 ng/mL, overnight, read-out: NO IC50 (μM), value in brackets.
The mark [5] stands for this setting: same method as Table 1, given as 10-50 μM, or <10 μM, read-out: IC50 of NO.

For the compound `COc1cc2c(c(OC)c1OC)-c1ccc(OC)c(=O)cc1[C@@H](NC(C)=O)CC2` [Colchicine, reference compound], the “Foot swelling” value in experiment [1] (2 h after modeling) amounted to 0.16 ± 0.12 mL; in experiment [1] (4 h after modeling) it was 0.21 ± 0.10 mL; in experiment [1] (8 h after modeling), 0.19 ± 0.10 mL; in experiment [1] (24 h after modeling) it was 0.20 ± 0.10 mL; in experiment [1] (48 h after modeling) it was 0.07 ± 0.09 mL. Besides, the “degree of foot swelling versus model group (in words)” value in experiment [1] (gavage, at each time point) is reported as “significantly lower”.

`Cc1oncc1C(=O)Nc1ccc(C(F)(F)F)cc1` [Leflunomide, reference compound]: the “PGE2 inhibition (%)” value with PGE2 induced by LPS came out at 54.0%. Besides, the “Foot swelling” value came out at 0.63 ± 0.14 mL in experiment [2] (1 h after inflammation), 0.62 ± 0.15 mL in experiment [2] (2 h after inflammation), 0.54 ± 0.14 mL in experiment [2] (3 h after inflammation) and 0.43 ± 0.11 mL in experiment [2] (4 h after inflammation). In experiment [2] (at 1 h and 2 h), the “degree of foot swelling compared with the normal group (in words)” value is given as “significantly reduced”. Besides, the results for the IC50 in the experiment on NO induced by LPS (setting [3]) and in the experiment with NO induced by LPS (setting [4]) were above 250 µM and 298 µM, respectively.

As to `C/C(O)=C(\C#N)C(=O)Nc1ccc(C(F)(F)F)cc1` [Teriflunomide, reference compound], in the experiment with PGE2 induced by LPS, the “PGE2 inhibition (%)” value was determined as 70.2%. Moreover, the figures for the concentration for half-maximal inhibition (IC50) in the experiment with NO induced by LPS (setting [3]) and in the experiment with NO induced by LPS (setting [4]) were 150 to 250 µM and 175 µM, respectively.

Turning to `Cc1cc(C(=O)Nc2cccc(O)c2)no1` [UTLOH-4b], in the experiment on PGE2 induced by LPS, the “PGE2 inhibition (%)” value was determined as 64.0%. The figures for the IC50 in the experiment on NO induced by LPS (setting [3]) and with NO induced by LPS (setting [4]) were below 10 µM and 7.7 µM, respectively.

Turning to `Cc1cc(C(=O)Nc2ccc(O)cc2)no1` [UTLOH-4c], the “PGE2 inhibition (%)” value in the experiment with PGE2 induced by LPS is given as 73.1%. Moreover, the “inhibition on PGE2 compared to leflunomide (in words)” value in the experiment with PGE2 induced by LPS (compared to leflunomide) is “stronger”. In addition, the IC50 in the experiment on NO induced by LPS (setting [3]) is below 10 µM; with NO induced by LPS (setting [4]), 6.3 µM. Further, in the experiment on NO induced by LPS (compared with leflunomide and teriflunomide), the “inhibition of LPS-induced NO compared with leflunomide and teriflunomide (in words)” value is on record as “more strongly”.

In the case of `Cc1cc(C(=O)Nc2cccc(O)c2O)no1` [UTLOH-4d], the “PGE2 inhibition rate (in words)” value in the experiment with PGE2 induced by LPS is recorded as “very good”. In the experiment on NO induced by LPS (setting [5]), the IC50 is at most 50 µM.

As for `Cc1cc(C(=O)Nc2cc(O)ccc2O)no1` [UTLOH-4f], the “PGE2 inhibition rate (in words)” value in the experiment on PGE2 induced by LPS was “very good”. Besides, in the experiment with NO induced by LPS (setting [5]), the IC50 is at most 50 µM.

In the case of `Cc1cc(C(=O)Nc2c(O)cccc2O)no1` [UTLOH-4g], the “PGE2 inhibition rate (in words)” value with PGE2 induced by LPS is given as “very good”. Further, in the experiment with NO induced by LPS (setting [5]), the half-maximal inhibitory concentration (IC50) is at most 50 µM.

As to `Cc1cc(C(=O)Nc2ccc(O)c(O)c2)no1` [UTLOH-4h], in the experiment on PGE2 induced by LPS, the “PGE2 inhibition rate (in words)” value was “very good”. In addition, in the experiment with NO induced by LPS (setting [5]), the IC50 is at most 50 µM.

`Cc1cc(C(=O)Nc2cc(O)cc(O)c2)no1` [UTLOH-4i]: in the experiment on PGE2 induced by LPS, the “PGE2 inhibition rate (in words)” value is “very good”. Moreover, in the experiment with NO induced by LPS (setting [5]), the IC50 was at most 50 µM.

In the case of `Cc1cc(C(=O)Nc2c(O)cc(O)cc2O)no1` [UTLOH-4k], in the experiment on PGE2 induced by LPS, the “PGE2 inhibition rate (in words)” value was “very good”. For the same compound, in the experiment on NO induced by LPS (setting [5]), the IC50 was at most 50 µM.
